Experimental data from patent publication US20090209560A1, “ANTI-INFLAMMATION ACTIVITY OF NEWLY SYNTHESIZED XANTHINE DERIVATIVES KMUP-1 AND KMUP-3” (KAOHSIUNG MEDICAL UNIVERSITY, priority 2006, published 2009).

Columns and labels:
Assay type in all cases: cell-based, rat
iNOS = iNOS protein expression by immunoblotting in TNF-α-exposed TSMCs; details: TSMCs with TNF-α 100 ng/ml
Protocol: (§1) The tracheal smooth muscle cell (TSM) culture is prepared from male Wistar rats purchased from the National Laboratory Animal Breeding and Research Center (Taipei, Taiwan).
(§2) The Wistar rats were injected intraperitoneally with a lethal dose of pentobarbital. The tracheas were excised and cut longitudinally through the cartilage. Using a dissecting microscope, TSM strips were dissected from the surrounding parenchyma. The epithelium was removed from the luminal surface, and bands of TSM were gently separated from the underlying connective tissue. The TSM strips were then chopped into small sections (1 mm^3) and incubated in Hank's balanced salt solution (NaCl, 138 mM; NaHCO3, 4 mM; KCl, 5 mM; KH2PO4, 0.3 mM; Na2HPO4, 0.3 mM; glucose, 1.0 mM) with 0.05% elastase type IV and 0.2% collagenase type IV (Invitrogen, Carlsbad, Calif.) for 30 min at 37° C. with gentle shaking. The solution of dissociated smooth muscle cells was centrifuged (6 min at 500 g) and the pellet was resuspended in 1:1 Dulbecco's modified Eagle's medium-Ham's F-12 medium supplemented with 10% fetal bovine serum (FBS), 0.244% NaHCO3, and 1% penicillin/streptomycin. Cells were cultured in a condition with or without KMUP-1, KMUP-3 and other negative or positive control agents, in 25 cm^2 flasks at 37° C. in humidified air containing 5% CO2. The medium was changed every 2-3 days.
(§3) To investigate the effects of TNF-α on iNOS and sGC proteins, TSMCs were incubated with TNF-α (100 ng/ml) for 1, 3, 6, 9, 12, 18 and 24 hr, and the levels of iNOS and sGC subunit proteins were measured by immunoblotting. […] In contrast to the increase expression of iNOS protein in FIG. 2, TNF-α in FIG. 3 decreased the expression of sGCα1 and sGCβ1 proteins in a time-dependent manner, with the maximal inhibition achieved at 9 hr. To investigate the effects of KMUP-1, KMUP-3, and the other PDE5 inhibitors zaprinast and exogenous 8-Br-cGMP on the TNF-α mediated pathway, TSMCs were incubated with TNF-α (100 ng/ml) and either one of the mentioned chemicals.

sGCα1 and sGCβ1 proteins = assay: sGC subunit protein expression by immunoblotting in TNF-α-exposed TSMCs; details: 10 μM; TSMCs with TNF-α 100 ng/ml; FIG. 5
Protocol: as §1, §2, §3

PKG = PKG protein expression by immunoblotting in TNF-α-exposed TSMCs; details: TSMCs with TNF-α 100 ng/ml; for effect on TNF-α-induced decreases of PKG protein: 10 μM, FIG. 8; for effect on TNF-α-induced decreases of PKG protein expression: concentration series, FIG. 7(B) as cited in text
Protocol: as §1, §2
(§4) To investigate the effects of TNF-α on PKG and PKA proteins, TSMCs were incubated with TNF-α (100 ng/ml) for 1, 3, 6, 9, 12, 18 and 24 hr, and the levels of PKG and PKA proteins were measured by immunoblotting. […] To investigate the effects of KMUP-1, KMUP-3, and the other PDE5 inhibitors zaprinast and exogenous 8-Br-cGMP on the TNF-α mediated pathway, TSMCs were incubated with TNF-α (100 ng/ml) and either one of the mentioned chemicals.

PKA = PKA protein expression by immunoblotting in TNF-α-exposed TSMCs; details: TSMCs with TNF-α 100 ng/ml; for effect on TNF-α-induced increases of PKA protein: 10 μM, FIG. 8; for effect on TNF-α-increased expression of PKA protein: 0.1-100 μM, FIG. 7(A) as cited in text
Protocol: as §1, §2, §4

cGMP = assay: Intracellular cGMP level in TSMCs (radioimmunoassay); details: 10 μM, 20 min pretreatment, then TNF-α 100 ng/ml for 9 hrs; FIG. 10(A)
Protocol: as §1
as §2, with “Cells were cultured in a condition with or without KMUP-1, KMUP-3 and other negative or positive control agents, in 25 cm^2 flasks at 37° C. in humidified air containing 5% CO2. The medium was changed every 2-3 days.” left out
Intracellular cGMP production was decreased and reaching minimal production at 9 hr in TSMCs in the presence of TNF-α (100 ng/ml). Intracellular concentrations of cAMP and cGMP in TSMC were measured to investigate the effects of KMUP-1, KMUP-3, and the other PDE5 inhibitor zaprinast or the isoproterenol thereto. […] The concentrations of cGMP of each sample were measured using cGMP-[125I] radioimmunoassay kits (GE Healthcare Bio-Sciences Corp., Piscataway, N.J.). […] As to the level of the cAMP, TSMCs were incubated with isoproterenol, KMUP-1, and KMUP-3 for 20 min, and further incubated in the absence or presence of TNF-α (100 ng/ml) for 9 hrs, where the concentrations of cAMP of each sample were measured using cAMP-[125I] radioimmunoassay kits (GE Healthcare Bio-Sciences Corp., Piscataway, N.J.).

nitrite/nitrate (NO) = assay: NO level measured by nitrite/nitrate in TSMC culture medium (colorimetric assay); details: 10 μM, 20 min pretreatment, then TNF-α 100 ng/ml for 9 hrs; FIG. 11
Protocol: as §1, §2
Exposure of TSMCs to TNF-α (100 ng/ml) for 9 hrs led to accumulation of nitrite and nitrate in the culture medium, indicating the release of NO. Please refer to the FIG. 11, TSMCs were pretreated with KMUP-1, KMUP-3, 8-Br-cGMP and zaprinast for 20 minutes, and were further incubated in the presence of TNF-α (100 ng/ml) for 9 hrs. The concentrations of nitrite and nitrate (stable breakdown product of NO) of each sample were analyzed using nitrite/nitrate colorimetric assay kits (Cayman Chemical Co.) and run in duplicate.

COX-2 = COX-2 protein expression by immunoblotting in TNF-α-exposed TSMCs; details: TSMCs with TNF-α 100 ng/ml, FIG. 9(B)
Protocol: The Wistar rats were injected intraperitoneally with a lethal dose of pentobarbital. The tracheas were excised and cut longitudinally through the cartilage. Using a dissecting microscope, TSM strips were dissected from the surrounding parenchyma. The epithelium was removed from the luminal surface, and bands of TSM were gently separated from the underlying connective tissue. The TSM strips were then chopped into small sections (1 mm^3) and incubated in Hank's balanced salt solution (NaCl, 138 mM; NaHCO3, 4 mM; KCl, 5 mM; KH2PO4, 0.3 mM; Na2HPO4, 0.3 mM; glucose, 1.0 mM) with 0.05% elastase type IV and 0.2% collagenase type IV (Invitrogen, Carlsbad, Calif.) for 30 min at 37° C. with gentle shaking. The solution of dissociated smooth muscle cells was centrifuged (6 min at 500 g) and the pellet was resuspended in 1:1 Dulbecco's modified Eagle's medium-Ham's F-12 medium supplemented with 10% fetal bovine serum (FBS), 0.244% NaHCO3, and 1% penicillin/streptomycin. […] The medium was changed every 2-3 days.
To investigate the effects of TNF-α on COX-2 protein, TSMCs were respectively incubated with or without TNF-α (100 ng/ml) for 1, 3, 6, 9, 12, 18 and 24 hr, and the levels of COX-2 proteins were measured by immunoblotting.

PGE2 and 6-keto-PGF1a = PGE2 and 6-keto-PGF1a release from TNF-α-exposed TSMCs (EIA); details: 10 μM, 20 min pretreatment, then TNF-α 100 ng/ml for 24 hrs; FIG. 12
Protocol: as §1, §2
Incubation of TSMCs with TNF-α (100 ng/ml) increased the releases of PGs, PGE2 and 6-keto-PGF1a, a PGI2 stable metabolite, and the greatest increases occurred were measured at 24 hr. Please refer to the FIG. 12, TSMCs were pretreated with KMUP-1 (10 μM), KMUP-3 (10 μM), dexamethasone (1 μM) and zaprinast (10 μM) for 20 minutes, and were further incubated in the presence of TNF-α (100 ng/ml) for 24 hrs, where the concentrations of PGE2 and 6-keto-PGF1a (stable metabolite of […]) in the culture medium were measured using PGE2 and 6-keto-PGF1a EIA assay kits (Cayman Chemical Co., Ann Arbor, Mich.) in duplicate.

cAMP = assay: Intracellular cAMP level in TSMCs (radioimmunoassay); details: FIG. 10(B)
Protocol: as §1, §2
Intracellular cGMP production was decreased and reaching minimal production at 9 hr in TSMCs in the presence of TNF-α (100 ng/ml). Intracellular concentrations of cAMP and cGMP in TSMC were measured to investigate the effects of KMUP-1, KMUP-3, and the other PDE5 inhibitor zaprinast or the isoproterenol thereto. As to the level of cGMP, TSMCs were pretreated with KMUP-1, KMUP-3, and the other PDE5 inhibitor zaprinast for 20 minutes and were further incubated in the presence of TNF-α (100 ng/ml) for 9 hrs. The concentrations of cGMP of each sample were measured using cGMP-[125I] radioimmunoassay kits (GE Healthcare Bio-Sciences Corp., Piscataway, N.J.). […] As to the level of the cAMP, TSMCs were incubated with isoproterenol, KMUP-1, and KMUP-3 for 20 min, and further incubated in the absence or presence of TNF-α (100 ng/ml) for 9 hrs, where the concentrations of cAMP of each sample were measured using cAMP-[125I] radioimmunoassay kits (GE Healthcare Bio-Sciences Corp., Piscataway, N.J.).

[1] = in the presence of TNF-α 100 ng/ml for 9 hrs

Compound | effect on TNF-α-induced increases of iNOS expression (iNOS; 10 μM, FIG. 4(B)) | effect on TNF-α inhibition of sGCα1 and sGCβ1 protein expression (sGCα1 and sGCβ1 proteins) | effect on TNF-α-induced decreases of PKG protein (PKG) | effect on TNF-α-induced increases of PKA protein (PKA) | effect on TNF-α-decreased intracellular cGMP (cGMP) | effect on TNF-α-induced production of nitrite/nitrate (NO levels) (nitrite/nitrate (NO)) | inhibition of TNF-α-induced COX-2 expression (COX-2; 10 μM pretreatment) | effect on TNF-α-induced PGE2 and 6-keto-PGF1a formation (PGE2 and 6-keto-PGF1a) | production of cAMP compared to the control group (cAMP; 10 μM, in the absence of TNF-α) | effect on TNF-α-induced increases of iNOS expression (iNOS; 0.01-100 μM, FIG. 4(A)) | effect on TNF-α-induced decreases of PKG protein expression (PKG) | effect on TNF-α-increased expression of PKA protein (PKA) | inhibition of TNF-α-induced COX-2 expression (COX-2) | production of cAMP compared to the control group (cAMP; [1])
CCCOc1ccccc1-c1nc2nn[nH]c2c(=O)[nH]1 [zaprinast, reference compound] | inhibited TNF-α-induced increases of iNOS expression to a similar extent | reversed | reversed TNF-α-induced decreases of PKG protein | could not affect TNF-α-induced increases of PKA protein | reversed to the basal level | inhibited | – | – | – | – | – | – | – | –
CS(=O)(=O)Nc1ccc([N+](=O)[O-])cc1OC1CCCCC1 [NS-398, reference compound] | – | – | – | – | – | – | significantly inhibit | significantly inhibited | – | – | – | – | – | –
Nc1nc2c(nc(Br)n2[C@@H]2O[C@@H]3COP(=O)(O)O[C@H]3[C@H]2O)c(=O)[nH]1 [8-Br-cGMP, reference compound] | inhibited TNF-α-induced increases of iNOS expression to a similar extent | reversed | reversed TNF-α-induced decreases of PKG protein | – | – | inhibited | – | – | – | – | – | – | – | –
CC(C)NCC(O)c1ccc(O)c(O)c1 (stereo not shown) [isoproterenol, reference compound] | – | – | – | – | – | – | – | – | significantly increased | – | – | – | – | –
Nc1ncnc2c1nc(Br)n2[C@@H]1O[C@@H]2COP(=O)(O)O[C@H]2[C@H]1O [8-Br-cAMP, reference compound] | – | – | – | could not affect TNF-α-induced increases of PKA protein | – | – | – | – | – | – | – | – | – | –
Cn1c(=O)c2c(ncn2CCN2CCN(c3ccc([N+](=O)[O-])cc3)CC2)n(C)c1=O [KMUP-3, 7-[2-[4-(4-nitrobenzene)piperazinyl]ethyl]-1,3-dimethylxanthine] | inhibited TNF-α-induced increases of iNOS expression to a similar extent | reversed | reversed TNF-α-induced decreases of PKG protein | could not affect TNF-α-induced increases of PKA protein | reversed to the basal level | inhibited | – | did not inhibit | significantly increased | inhibited TNF-α-induced increases of iNOS expression in a concentration-dependent manner | reversed | not further increased | not | could not further increase
Cn1c(=O)c2c(ncn2CCN2CCN(c3ccccc3Cl)CC2)n(C)c1=O [KMUP-1, 7-[2-[4-(2-chlorobenzene)piperazinyl]ethyl]-1,3-dimethylxanthine] | inhibited TNF-α-induced increases of iNOS expression to a similar extent | reversed | reversed TNF-α-induced decreases of PKG protein | could not affect TNF-α-induced increases of PKA protein | reversed to the basal level | inhibited | – | did not inhibit | significantly increased | inhibited TNF-α-induced increases of iNOS expression in a concentration-dependent manner | reversed | not further increased | not | could not further increase
